Experiment [1] addresses T1, natural ABAR/CHLH protein (Arabidopsis thaliana, UniProt Q9FNB0).
T1 construct: 50 μg proteins of the crude extracts from two-week-old Arabidopsis seedlings; from tissue; host or cells: crude extracts of two-week-old Arabidopsis seedlings / leaves of gl1 (WT), RNAi line 12 and overexpressor line 1
T1 sequence (Q9FNB0 50-1381): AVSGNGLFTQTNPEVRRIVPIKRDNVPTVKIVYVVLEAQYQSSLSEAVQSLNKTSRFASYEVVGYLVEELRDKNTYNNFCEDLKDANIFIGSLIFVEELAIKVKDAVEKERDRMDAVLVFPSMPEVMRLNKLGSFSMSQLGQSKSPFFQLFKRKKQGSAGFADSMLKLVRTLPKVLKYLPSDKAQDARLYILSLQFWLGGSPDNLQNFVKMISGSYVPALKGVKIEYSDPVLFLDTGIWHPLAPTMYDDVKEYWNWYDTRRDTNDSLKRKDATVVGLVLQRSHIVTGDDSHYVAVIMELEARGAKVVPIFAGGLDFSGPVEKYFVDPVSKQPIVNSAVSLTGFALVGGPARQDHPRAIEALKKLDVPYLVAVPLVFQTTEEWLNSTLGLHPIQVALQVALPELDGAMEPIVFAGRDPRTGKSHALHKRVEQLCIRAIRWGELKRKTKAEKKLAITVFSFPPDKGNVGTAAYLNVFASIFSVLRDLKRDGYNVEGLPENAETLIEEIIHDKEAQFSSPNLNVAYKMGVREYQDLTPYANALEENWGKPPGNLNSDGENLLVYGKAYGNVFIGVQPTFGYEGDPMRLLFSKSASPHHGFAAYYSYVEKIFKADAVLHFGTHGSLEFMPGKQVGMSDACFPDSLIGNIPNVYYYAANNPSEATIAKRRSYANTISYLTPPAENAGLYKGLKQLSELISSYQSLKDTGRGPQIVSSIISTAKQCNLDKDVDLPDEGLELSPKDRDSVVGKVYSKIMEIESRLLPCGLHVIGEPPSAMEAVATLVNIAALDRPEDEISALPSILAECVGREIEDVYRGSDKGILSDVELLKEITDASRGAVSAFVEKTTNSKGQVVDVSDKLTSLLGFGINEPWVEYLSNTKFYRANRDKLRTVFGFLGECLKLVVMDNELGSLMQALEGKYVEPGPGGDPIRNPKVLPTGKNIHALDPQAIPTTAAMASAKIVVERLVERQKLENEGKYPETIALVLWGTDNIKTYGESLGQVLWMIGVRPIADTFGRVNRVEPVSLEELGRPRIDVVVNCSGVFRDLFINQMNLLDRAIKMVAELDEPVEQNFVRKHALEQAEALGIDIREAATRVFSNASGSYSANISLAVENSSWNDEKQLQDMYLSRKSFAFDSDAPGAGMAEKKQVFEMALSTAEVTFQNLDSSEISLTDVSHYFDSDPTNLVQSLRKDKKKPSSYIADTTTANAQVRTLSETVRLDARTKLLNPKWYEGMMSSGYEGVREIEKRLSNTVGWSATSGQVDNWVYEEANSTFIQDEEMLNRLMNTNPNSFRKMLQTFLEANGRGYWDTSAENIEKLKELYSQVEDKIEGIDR
The experiment is described as follows: ABA binding assay with crude extracts of leaves (WT, RNAi, OE lines). Here is the method:
(§1) The ABA-binding activity of ABAR was assayed according to the previously described procedures (Zhang, D. P. et al., Plant physiol. 128:714-725 (2002)) with modifications. The binding medium (medium A) contained 50 mM Tris-HCl (pH 7.0), 2 mM MgCl2, 1 mM CaCl2, and 250 mM mannitol. The medium for extracting the Arabidopsis natural ABAR/CHLH protein (medium B) was the medium A supplemented with 2 mM 1,4-dithiothreitol (DTT), 1 mM phenylmethyl sulfonyl fluoride (PMSF), […] leupeptin, and […] pepstin A but minus 250 mM mannitol. [^3H](+)ABA (American Radiolabeled Chemicals, 2.37×10^12 Bq mmol^−1, purity 98.4%) at 30 nM, or at a step gradient of concentrations from 0 to 70 nM (when analyzing ABA binding kinetics, see FIG. 1a, d1), together with 2 μg purified yeast-expressed ABAR/CHLH protein or 50 μg proteins of the crude extracts from two-week-old Arabidopsis seedlings, was added into the medium A. The total volume for the binding assays was adjusted to 200 μl. The mixtures were incubated at 25° C. for 30 min, and then quickly placed on ice. Following the addition of 100 μl 0.5% (w/v) Dextran T70-coated charcoal (DCC) to remove the free [^3H]ABA by adsorption, the mixtures were maintained on ice for 5 min, and then centrifuged to remove DCC before the radioactivity in the supernatant was counted. The specific binding was determined by the difference between the radioactivity bound to the immuno-purified ABAR protein or crude extracts of Arabidopsis seedlings incubated only with [^3H]ABA (total binding) and radioactivity bound in the presence of 1,000-fold molar excess of unlabeled (+)-ABA (Sigma; non-specific binding. Non-specific binding in all the assays was lower than 10% of the total binding, see FIG. 1a, d1). The unlabeled ABA was added into the incubation medium at the same time with [^3H]ABA. The ABA-binding activity of the crude ABA-binding protein from Arabidopsis seedling was expressed as the number of nanomoles of [^3H]ABA specifically bound per gram of protein, and that of the immuno-purified ABAR protein as the number of moles of [^3H]ABA per mole of protein. The stereo-specificity of the ABA-binding was assayed as described previously (Zhang, D. P. et al., Plant physiol. 128:714-725 (2002)). […] The conditions of incubation were the same as described above (the incubation medium containing 30 nM [^3H]ABA), and the two ABA isomers and (+)-ABA were assayed in the concentrations ranging from 1 to 1000-fold molar excess of [^3H]ABA.
For the assays of ABA binding in transgenic ABAR-RNAi and -overexpressor plants, we used more than three lines for each type of the transgenic plants and the results obtained were similar. Thus, only were the data with RNAi line 12 and overexpressor line 1 (see FIG. 5) shown in the text.

Experiment [2] has as its target T2, Arabidopsis ABAR/CHLH (H subunit of Mg-chelatase) (Arabidopsis thaliana, UniProt Q9FNB0).
T2 construct: 6xHis; made in house; host or cells: Pichia methanolica (Pichia Methanolica Expression kit, Invitrogen)
T2 sequence (Q9FNB0 50-1381): T1 sequence (Q9FNB0 50-1381)
The experiment is described as follows: ABA binding assay with purified yeast-expressed ABAR/CHLH. On the procedure: Full-length ABAR/CHLH coding sequence was PCR-amplified with forward primer 5′-[…]-3′ (SEQ ID NO:30) and reverse primer 5′-[…]-3′ (SEQ ID NO:31). The recombinant ABAR/CHLH was expressed in yeast as a fusion protein with a 6×His (SEQ ID NO:32) tag by using Pichia Methanolica Expression kit (Invitrogen) and the fusion protein was affinity-purified according to manufacturer's instructions.
as §1

Structures are written as SMILES. Read-outs that look alike come from different tables or passages of the source.

Turning to `CC1=CC(=O)CC(C)(C)C1(O)/C=C/C(C)=C\C(=O)O` (stereo not drawn) [ABA, abscisic acid], the Kd was 35 to 38 nM in experiment [1] (across WT, RNAi and overexpressing leaf extracts, read-out: Kd); 36 nM in experiment [1] (leaf extracts of RNAi transgenic plants, read-out: Kd); 38 nM in experiment [1] (leaf extracts of overexpressors of ABAR/CHLH gene (OE, line 1), read-out: Kd); 35 nM in experiment [1] (leaf extracts of wild-type plants (WT), read-out: Kd (equilibrium dissociation constant)); 32 nM in experiment [2]. Further, the Bmax in experiment [1] (leaf extracts of RNAi transgenic plants) was 25 nmol/g; in experiment [1] (leaf extracts of overexpressors of ABAR/CHLH gene (OE, line 1)), 80 nmol/g. The “Bmax (maximum binding)” value in experiment [1] (leaf extracts of wild-type plants (WT)) was 60 nmol ABA g^−1 crude protein. Moreover, in experiment [2] (pure yeast-expressed ABAR, Scatchard plot), the “maximum binding (Bmax)” value is listed as 1.28 mol ABA per mol of protein.

For the origin of these results see patent US20090044291A1, “DROUGHT-RESISTANT PLANTS AND METHOD FOR PRODUCING THE PLANTS” (D-Helix, priority 2006, published 2009).
